Measured values published in patent US20260176270A1 (Exelixis, Inc., priority 2022, published 2026).
Where two headings read alike, the source gives them in different places.

Legend:
[1] = biological target: T1, PKMYT1 (Homo sapiens, UniProt Q99640); assay: ADP-Glo PKMYT1 ATP-depletion assay; settings: 50 nM PKMYT1, 13.3 nM CDK1, read-out: Biochemical IC50
T1 construct: PKMYT1 (93 kD, full length, N-terminal GST tag from Signal Chem); GST (N); purchased Signal Chem
T1 sequence (Q99640 1-499): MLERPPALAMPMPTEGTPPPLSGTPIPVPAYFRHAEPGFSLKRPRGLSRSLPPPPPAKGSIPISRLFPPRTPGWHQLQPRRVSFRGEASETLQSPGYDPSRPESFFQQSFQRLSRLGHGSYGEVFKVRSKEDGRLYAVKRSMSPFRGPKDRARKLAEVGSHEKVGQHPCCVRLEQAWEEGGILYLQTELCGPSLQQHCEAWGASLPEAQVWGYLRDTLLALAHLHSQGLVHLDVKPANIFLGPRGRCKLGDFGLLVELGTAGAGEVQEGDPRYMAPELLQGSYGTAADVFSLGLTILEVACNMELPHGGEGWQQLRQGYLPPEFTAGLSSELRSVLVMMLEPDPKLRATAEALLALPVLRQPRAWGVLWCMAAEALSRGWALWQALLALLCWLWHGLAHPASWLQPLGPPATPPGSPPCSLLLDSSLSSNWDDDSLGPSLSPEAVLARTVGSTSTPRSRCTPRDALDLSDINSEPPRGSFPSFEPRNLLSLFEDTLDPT
Outline: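 Full-length N-terminal GST-tagged PKMYT1 (50 nM) with GST-CDK1 (13.3 nM) as substrate and 88 µM ATP, in Hepes buffer with MgCl2, MnCl2, DTT and BSA; DMSO <1%. Incubated 120 min at RT. ADP formed was quantified by ADP-Glo luminescence and used to derive biochemical IC50.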

[2] = test system: phosphorylation of CDK1 at Thr14 in HCC1806 cells; assay: Cell lysate AlphaLISA assay measuring inhibition of phosphorylation of CDK1 Thr14; type: cell-based; settings: read-out: Cellular IC50
Outline: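 HCC1806 cells seeded overnight, then treated 4 h at 37 °C, 5% CO2 with compounds in DMSO; washed and lysed, lysates frozen overnight at −80 °C. CDK1 Thr14 phosphorylation read by AlphaLISA SureFire Ultra; data normalized to DMSO (0% inhibition) and 3 μM reference compound to give IC50.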

SMILES	IC50 [1]	IC50 ([2]; 4 hours)	IC50 ([2]; Homo sapiens, HCC1806, 4 h)
Cc1ccc(O)c(C)c1-c1c(N)c(C(N)=O)nc2ccc(C(F)(F)F)cc12 (single isomer, unassigned) [Compound 41, (P)-3-amino-4-(3-hydroxy-2,6-dimethylphenyl)-6-(trifluoromethyl)quinoline-2-carboxamide]	≥ 5 µM	≥ 5 µM	–
Cc1ccc(O)c(C)c1-c1c(N)c(C(N)=O)cc2nc(C(F)(F)F)cnc12 (single isomer, unassigned) [Compound 111, (M)-7-Amino-8-(3-hydroxy-2,6-dimethylphenyl)-3-(trifluoromethyl)quinoxaline-6-carboxamide]	1 to 5 µM	≥ 5 µM	–
Cc1nc2cc(C(N)=O)c(N)c(-c3cccc(O)c3C)c2nc1C (single isomer, unassigned) [Compound 93, (M)-7-Amino-8-(3-hydroxy-2-methylphenyl)-2,3-dimethylquinoxaline-6-carboxamide]	≥ 5 µM	≥ 5 µM	–
Cc1c(O)cccc1-c1c(N)c(C(N)=O)nc2nccc(Cl)c12 [Compound 261]	≥ 5 µM	–	≥ 5 µM
Cc1ccc(O)c(C)c1-c1c(N)c(C(N)=O)cc2cccnc12 (single isomer, unassigned) [Compound 65, (M)-7-Amino-8-(3-hydroxy-2,6-dimethyl-phenyl)quinoline-6-carboxamide]	0.5 to 1 µM	≥ 5 µM	–
Cc1c(O)cccc1-c1c(N)c(C(N)=O)cc2c1ncc(=O)n2C (atropisomer, axis not shown) [Compound 283]	1 to 5 µM	≥ 5 µM	–
Cc1c(O)cccc1-c1c(N)c(C(N)=O)cc2cccnc12 (single isomer, unassigned) [Compound 62]	< 0.05 µM	0.05 to 0.5 µM	–
Cc1ccc2[nH]nc(F)c2c1-c1c(N)c(C(N)=O)cc2nccnc12 (atropisomer, axis not shown) [Compound 300]	0.05 to 0.5 µM	1 to 5 µM	–
Cc1ncc(O)c(C)c1-c1c(N)c(C(N)=O)nc2cccnc12 [Compound 256]	1 to 5 µM	–	≥ 5 µM
Cc1c(-c2c(N)c(C(N)=O)nc3cccnc23)cnn1C [Compound 320]	≥ 5 µM	–	1 to 5 µM
Cc1c(O)cccc1-c1c(N)c(C(N)=O)cc2cc(Cl)cnc12 [Compound 146]	< 0.05 µM	–	0.05 to 0.5 µM
Cc1c(O)cccc1-c1c(N)c(C(N)=O)cc2cccnc12 [Compound 61, 7-Amino-8-(3-hydroxy-2-methylphenyl)quinoline-6-carboxamide]	< 0.05 µM	–	0.05 to 0.5 µM
Cc1cc(CO)ccc1-c1c(N)c(C(N)=O)nc2cccnc12 [Compound 221]	≥ 5 µM	–	≥ 5 µM
Cc1cnc2cc(C(N)=O)c(N)c(-c3c(C)ccc(O)c3C)c2n1 [Compound 156]	< 0.05 µM	0.05 to 0.5 µM	–
NC(=O)c1nc2c(c(-c3cc(O)cnc3F)c1N)NCCC2 (atropisomer, axis not shown) [Compound 294]	1 to 5 µM	–	≥ 5 µM
Cc1n[nH]c2cccc(-c3c(N)c(C(N)=O)cc4nccnc34)c12 [Compound 109, 7-Amino-8-(3-methyl-1H-indazol-4-yl)quinoxaline-6-carboxamide]	0.05 to 0.5 µM	–	≥ 5 µM
Cc1c(O)cccc1-c1ccnc2nc(C(N)=O)c(N)cc12 [Compound 233]	1 to 5 µM	–	≥ 5 µM
Cc1ccc2c(-c3cccc(O)c3C)c(N)c(C(N)=O)nc2c1 [Compound 46, 3-Amino-4-(3-hydroxy-2-methylphenyl)-7-methylquinoline-2-carboxamide]	1 to 5 µM	–	≥ 5 µM
Cc1n[nH]c2cccc(-c3cc(C(N)=O)cc4nccnc34)c12 [Compound 72, 8-(3-Methyl-1H-indazol-4-yl)quinoxaline-6-carboxamide]	≥ 5 µM	–	≥ 5 µM
NC(=O)c1nc2cccnc2c(-c2c(F)ccc3[nH]ncc23)c1N (atropisomer, axis not shown) [Compound 244]	0.05 to 0.5 µM	0.5 to 1 µM	–
Cc1c(CO)cccc1-c1c(N)c(C(N)=O)nc2cccnc12 [Compound 249]	≥ 5 µM	–	≥ 5 µM
NC(=O)c1nc2cccnc2c(-c2c(F)ccc3[nH]ncc23)c1N (atropisomer, axis not shown) [Compound 245]	≥ 5 µM	≥ 5 µM	–
Cc1cncc(C2=c3ncccc3=NC(C(N)=O)C2N)c1C (stereo not drawn) [Compound 211]	0.5 to 1 µM	–	1 to 5 µM

SMILES	IC50 [1]	IC50 ([2]; 4 hours)	IC50 ([2]; Homo sapiens, HCC1806, 4 h)
Cc1cnc2cc(C(N)=O)c(N)c(-c3c(C)ccc(O)c3C)c2n1 (atropisomer, axis not shown) [Compound 188]	< 0.05 µM	0.05 to 0.5 µM	–
Cc1c(O)cccc1-c1c(N)c(C(N)=O)cc2nc(C(F)(F)F)c(O)nc12 [Compound 133]	0.05 to 0.5 µM	1 to 5 µM	–
Cc1c(-c2c(N)c(C(N)=O)cc3nccnc23)ccc(F)c1O [Compound 227]	< 0.05 µM	–	0.05 to 0.5 µM
Cc1ccc(O)c(C)c1-c1c(N)c(C(N)=O)nc2ccc(F)cc12 [Compound 20, 3-Amino-6-fluoro-4-(3-hydroxy-2,6-dimethylphenyl)quinoline-2-carboxamide]	0.05 to 0.5 µM	1 to 5 µM	–
Cc1ccc2[nH]ncc2c1-c1c(N)c(C(N)=O)cc2nccnc12 [Compound 77, 7-Amino-8-(5-methyl-1H-indazol-4-yl)quinoxaline-6-carboxamide]	0.05 to 0.5 µM	–	1 to 5 µM
Cc1c(O)cccc1-c1c(N)c(C(N)=O)cc2cccnc12 (single isomer, unassigned) [Compound 63]	1 to 5 µM	≥ 5 µM	–
Cc1ccc(O)c(C)c1-c1c(N)c(C(N)=O)cc2nc(-c3cnn(C)c3)cnc12 [Compound 251]	< 0.05 µM	–	0.5 to 1 µM
Cc1c(O)cccc1-c1c(N)c(C(N)=O)cc2nc(O)c(C(F)(F)F)nc12 [Compound 137]	1 to 5 µM	–	≥ 5 µM
NC(=O)c1cc2nccnc2c(-c2ccnc3[nH]ncc23)c1N [Compound 182]	1 to 5 µM	–	≥ 5 µM
Cc1ccc(O)c(C)c1-c1cc(C(N)=O)cc2cccnc12 [Compound 60, 8-(3-Hydroxy-2,6-dimethyl-phenyl)quinoline-6-carboxamide]	0.5 to 1 µM	–	≥ 5 µM
Cc1c(O)cccc1-c1c(N)c(C(N)=O)nc2cccc(F)c12 (single isomer, unassigned) [Compound 58, (M)-3-amino-5-fluoro-4-(3-hydroxy-2-methylphenyl)quinoline-2-carboxamide]	1 to 5 µM	≥ 5 µM	–
COc1nc2c(-c3cccc(O)c3C)c(N)c(C(N)=O)cc2nc1C (atropisomer, axis not shown) [Compound 218]	< 0.05 µM	0.5 to 1 µM	–
Cc1ccc(O)c(C)c1-c1c(N)c(C(N)=O)nc2cccnc12 (single isomer, unassigned) [Compound 9, (P)-3-Amino-4-(3-hydroxy-2,6-dimethylphenyl)-1,5-naphthyridine-2-carboxamide]	< 0.05 µM	< 0.05 µM	–
NC(=O)c1cc2nccnc2c(-c2cccc(O)c2F)c1N [Compound 120, 7-Amino-8-(2-fluoro-3-hydroxyphenyl)quinoxaline-6-carboxamide]	0.05 to 0.5 µM	–	0.05 to 0.5 µM
COc1ccnc2c(-c3cccc(O)c3C)c(N)c(C(N)=O)cc12 (atropisomer, axis not shown) [Compound 325]	1 to 5 µM	1 to 5 µM	–
Cc1c(O)cccc1-c1c(N)c(C(N)=O)cc2c1ncc(=O)n2C (atropisomer, axis not shown) [Compound 284]	0.05 to 0.5 µM	≥ 5 µM	–
Cn1ccc(-c2cc(C(N)=O)cc3nccnc23)cc1=O [Compound 132]	≥ 5 µM	–	≥ 5 µM
NC(=O)c1cc2nccnc2c(-c2cc(O)cnc2Cl)c1N (atropisomer, axis not shown) [Compound 164]	≥ 5 µM	≥ 5 µM	–
Cc1c(O)cccc1-c1c(N)c(C(N)=O)nc2cccc(C#N)c12 (atropisomer, axis not shown) [Compound 243]	0.05 to 0.5 µM	0.05 to 0.5 µM	–
Cc1c(Cl)cncc1C1=c2ncccc2=NC(C(N)=O)C1N (stereo not drawn) [Compound 240]	< 0.05 µM	0.05 to 0.5 µM	–
Cc1c(O)cccc1-c1c(N)c(C(N)=O)cc2nc(C(F)(F)F)cnc12 (atropisomer, axis not shown; (P)) [Compound 100, (P)-7-Amino-8-(3-hydroxy-2-methylphenyl)-3-(trifluoromethyl)quinoxaline-6-carboxamide]	0.05 to 0.5 µM	0.05 to 0.5 µM	–
COc1nc2c(-c3cccc(O)c3C)c(N)c(C(N)=O)cc2nc1C [Compound 173]	0.05 to 0.5 µM	0.05 to 0.5 µM	–
